Like-named read-outs stand apart in the source and are kept apart here.
What was measured:
E. coli RGN238 [1] = assay: microbe, parasite or virus in culture; assay type: cell-based
Description: Log phase bacterial suspensions were adjusted to a final density of 5×10^5 cfu/mL in cation-adjusted Mueller-Hinton broth (Becton-Dickinson) and added to each well (98 μL). Microplates were incubated for 16-20 h at 35° C. in ambient air. The MIC of the compounds was defined as the lowest concentration of said compounds that prevented bacterial growth as read by visual inspection.

OXA-48 = OXA-48 (Klebsiella pneumoniae, UniProt Q6XEC0)
KPC-2 = KPC-2 (Klebsiella pneumoniae, UniProt Q9F663)
CTX-M-15 = CTX-M-15 (Escherichia coli, UniProt Q9EXV5)
E. cloacae UFR70 = assay: MIC of ceftazidime (CAZ) at fixed concentration of compound (synergy), broth microdilution; assay type: cell-based; settings: MIC of ceftazidime with compound fixed at 4 μg/mL; strain UFR70 (E. cloacae)
Summary of the method: (§1)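 Log-phase bacteria were diluted to a final 5×10^5 cfu/mL in cation-adjusted Mueller-Hinton broth and incubated 16-20 h at 35° C in ambient air. MIC was taken as the lowest concentration preventing growth, judged visually.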

E. cloacae 260508 = assay: as above; assay type: cell-based; settings: MIC of ceftazidime with compound fixed at 4 μg/mL; strain 260508 (E. cloacae)
Summary of the method: as §1

E. coli UFR74 = assay: as above; assay type: cell-based; settings: MIC of ceftazidime with compound fixed at 4 μg/mL; strain UFR74 (E. coli)
Summary of the method: as §1

E. coli UFR32 = assay: as above; assay type: cell-based; settings: MIC of ceftazidime with compound fixed at 4 μg/mL; strain UFR32 (E. coli)
Summary of the method: as §1

K. pneumoniae UFR68 = assay: as above; assay type: cell-based; settings: MIC of ceftazidime with compound fixed at 4 μg/mL; strain UFR68 (K. pneumoniae)
Summary of the method: as §1

E. cloacae UFR85 = assay: as above; assay type: cell-based; settings: MIC of ceftazidime with compound fixed at 4 μg/mL; strain UFR85 (E. cloacae)
Summary of the method: as §1

P. aeruginosa CIP107051 = assay: as above; assay type: cell-based; settings: MIC of ceftazidime with compound fixed at 4 μg/mL; strain CIP107051 (P. aeruginosa)
Summary of the method: as §1

E. coli RGN238 [2] = assay: as above; assay type: cell-based; settings: MIC of ceftazidime with compound fixed at 4 μg/mL; strain RGN238 (E. coli)
Summary of the method: as §1

E. coli UFR18 = assay: as above; assay type: cell-based; settings: MIC of ceftazidime with compound fixed at 4 μg/mL; strain UFR18 (E. coli)
Summary of the method: as §1

E. coli 190317 [3] = assay: as above; assay type: cell-based; settings: MIC of ceftazidime with compound fixed at 4 μg/mL; strain 190317 (E. coli)
Summary of the method: as §1

K. pneumoniae 160143 = assay: as above; assay type: cell-based; settings: MIC of ceftazidime with compound fixed at 4 μg/mL; strain 160143 (K. pneumoniae)
Summary of the method: as §1

E. coli UFR41 = assay: as above; assay type: cell-based; settings: MIC of ceftazidime with compound fixed at 4 μg/mL; strain UFR41 (E. coli)
Summary of the method: as §1

E. cloacae P99 = assay: as above; assay type: cell-based; settings: MIC of ceftazidime with compound fixed at 4 μg/mL; strain P99 (E. cloacae)
Summary of the method: as §1

E. coli UFR61O = assay: as above; assay type: cell-based; settings: MIC of ceftazidime with compound fixed at 4 μg/mL; strain UFR61O (E. coli)
Summary of the method: as §1

K. pneumoniae UFR24 = assay: as above; assay type: cell-based; settings: MIC of ceftazidime with compound fixed at 4 μg/mL; strain UFR24 (K. pneumoniae)
Summary of the method: as §1

K. pneumoniae 6299 = assay: as above; assay type: cell-based; settings: MIC of ceftazidime with compound fixed at 4 μg/mL; strain 6299 (K. pneumoniae)
Summary of the method: as §1

K. pneumoniae UFR77 = assay: as above; assay type: cell-based; settings: MIC of ceftazidime with compound fixed at 4 μg/mL; strain UFR77 (K. pneumoniae)
Summary of the method: as §1

K. pneumoniae BAA-1898 = assay: as above; assay type: cell-based; settings: MIC of ceftazidime with compound fixed at 4 μg/mL; strain BAA-1898 (K. pneumoniae)
Summary of the method: as §1

E. coli 131119 = assay: as above; assay type: cell-based; settings: MIC of ceftazidime with compound fixed at 4 μg/mL; strain 131119 (E. coli)
Summary of the method: as §1

K. oxytoca UFR21 [4] = assay: as above; assay type: cell-based; settings: MIC of ceftazidime with compound fixed at 4 μg/mL; strain UFR21 (K. oxytoca)
Summary of the method: as §1

K. pneumoniae 200047 = assay: as above; assay type: cell-based; settings: MIC of ceftazidime with compound fixed at 4 μg/mL; strain 200047 (K. pneumoniae)
Summary of the method: as §1

E. cloacae UFR51 = assay: as above; assay type: cell-based; settings: MIC of ceftazidime with compound fixed at 4 μg/mL; strain UFR51 (E. cloacae)
Summary of the method: as §1

E. coli UFR39 = assay: as above; assay type: cell-based; settings: MIC of ceftazidime with compound fixed at 4 μg/mL; strain UFR39 (E. coli)
Summary of the method: as §1

E. coli 190317 [5] = assay: MIC of compound alone, broth microdilution; assay type: cell-based; settings: strain 190317: E. coli, TEM-1, SHV-12, CTX-M-15, OXA-1
Summary of the method: as §1

K. oxytoca UFR21 [6] = assay: MIC of compound alone, broth microdilution; assay type: cell-based; settings: strain UFR21: K. oxytoca, TEM-1, CTX-M-15, OXA-48
Summary of the method: as §1

OXA-15 = OXA-15 (Pseudomonas aeruginosa, UniProt Q51574); assay: biochemical
OXA-15, sequence (Q51574 22-275): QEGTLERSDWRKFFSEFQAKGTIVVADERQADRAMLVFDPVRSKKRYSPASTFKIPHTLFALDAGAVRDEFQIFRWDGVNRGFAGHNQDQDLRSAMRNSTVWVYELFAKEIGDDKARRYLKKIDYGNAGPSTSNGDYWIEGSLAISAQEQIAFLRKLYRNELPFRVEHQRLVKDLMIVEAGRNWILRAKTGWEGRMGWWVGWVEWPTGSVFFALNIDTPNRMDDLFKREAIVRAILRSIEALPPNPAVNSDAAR

KPC-2, sequence (Q9F663 25-293, looked up, species assumed): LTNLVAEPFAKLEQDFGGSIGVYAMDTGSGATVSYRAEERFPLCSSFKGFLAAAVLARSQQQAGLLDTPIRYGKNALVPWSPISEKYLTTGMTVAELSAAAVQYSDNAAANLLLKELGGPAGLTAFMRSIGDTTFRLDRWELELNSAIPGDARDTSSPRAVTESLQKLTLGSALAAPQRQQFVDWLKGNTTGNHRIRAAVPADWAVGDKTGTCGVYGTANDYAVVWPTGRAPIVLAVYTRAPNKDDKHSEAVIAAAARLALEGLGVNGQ
OXA-48, sequence (Q6XEC0 23-265, looked up, species assumed): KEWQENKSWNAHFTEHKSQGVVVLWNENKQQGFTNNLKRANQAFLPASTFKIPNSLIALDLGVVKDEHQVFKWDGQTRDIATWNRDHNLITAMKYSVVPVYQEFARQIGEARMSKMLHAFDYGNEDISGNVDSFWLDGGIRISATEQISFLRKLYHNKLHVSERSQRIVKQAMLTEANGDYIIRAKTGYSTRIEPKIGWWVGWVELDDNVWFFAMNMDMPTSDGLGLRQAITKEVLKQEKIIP
CTX-M-15, sequence (Q9EXV5 29-291, species assumed): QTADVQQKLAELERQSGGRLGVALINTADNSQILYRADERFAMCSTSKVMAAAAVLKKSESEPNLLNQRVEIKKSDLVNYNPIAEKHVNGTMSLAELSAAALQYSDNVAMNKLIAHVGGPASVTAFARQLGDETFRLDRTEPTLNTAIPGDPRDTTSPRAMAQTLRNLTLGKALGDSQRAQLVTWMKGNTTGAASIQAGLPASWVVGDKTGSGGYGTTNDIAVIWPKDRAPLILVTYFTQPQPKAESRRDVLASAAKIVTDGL

| SMILES | MIC combination of CAZ and compounds of the invention at 4 μg/mL (E. cloacae UFR70) | MIC combination of CAZ and compounds of the invention at 4 μg/mL (E. cloacae 260508) | MIC combination of CAZ and compounds of the invention at 4 μg/mL (E. coli UFR74) | MIC combination of CAZ and compounds of the invention at 4 μg/mL (E. coli UFR32) | MIC combination of CAZ and compounds of the invention at 4 μg/mL (K. pneumoniae UFR68) | MIC combination of CAZ and compounds of the invention at 4 μg/mL (E. cloacae UFR85) | MIC combination of CAZ and compounds of the invention at 4 μg/mL (P. aeruginosa CIP107051) | MIC combination of CAZ and compounds of the invention at 4 μg/mL (E. coli RGN238 [2]) | MIC combination of CAZ and compounds of the invention at 4 μg/mL (E. coli UFR18) | MIC combination of CAZ and compounds of the invention at 4 μg/mL (E. coli 190317 [3]) | MIC combination of CAZ and compounds of the invention at 4 μg/mL (K. pneumoniae 160143) | MIC combination of CAZ and compounds of the invention at 4 μg/mL (E. coli UFR41) | MIC combination of CAZ and compounds of the invention at 4 μg/mL (E. cloacae P99) | MIC combination of CAZ and compounds of the invention at 4 μg/mL (E. coli UFR61O) | MIC combination of CAZ and compounds of the invention at 4 μg/mL (K. pneumoniae UFR24) | MIC combination of CAZ and compounds of the invention at 4 μg/mL (K. pneumoniae 6299) | MIC combination of CAZ and compounds of the invention at 4 μg/mL (K. pneumoniae UFR77) | MIC combination of CAZ and compounds of the invention at 4 μg/mL (K. pneumoniae BAA-1898) | MIC combination of CAZ and compounds of the invention at 4 μg/mL (E. coli 131119) | MIC combination of CAZ and compounds of the invention at 4 μg/mL (K. oxytoca UFR21 [4]) | other results |
| --- | --- | --- | --- | --- | --- | --- | --- | --- | --- | --- | --- | --- | --- | --- | --- | --- | --- | --- | --- | --- | --- |
| O=C1N2CC(n3ccnn3)=CC(C2)N1OS(=O)(=O)[O-].[Na+] (centres unmarked) [Example 2, sodium [7-oxo-3-(triazol-1-yl)-1,6-diazabicyclo[3.2.1]oct-3-en-6-yl]sulfate] | <0.25 | <0.25 | <0.25 | <0.25 | <0.25 | <0.25 | 4 | <0.25 | <0.25 | <0.25 | <0.25 | <0.25 | <0.25 | <0.25 | ≤0.25 | <0.25 | <0.25 | <0.25 | <0.25 | <0.25 | MIC compounds of the invention alone (E. coli RGN238 [1]; strain RGN238: E. coli, OXA-1): 2 µg/mL; IC50 (OXA-48; read-out: IC50 β-lactamase OXA-48, class (D), nitrocefin 200 μM, 30-min pre-incubation, enzyme 0.3 nM): 0.59 nM; IC50 (KPC-2; read-out: IC50 β-lactamase KPC-2, class (A), nitrocefin 200 μM, 30-min pre-incubation, enzyme 1 nM): 4.7 nM; IC50 (CTX-M-15; read-out: IC50 β-lactamase CTX-M-15, class (A), nitrocefin 200 μM, 30-min pre-incubation, enzyme 0.4 nM): 0.67 nM; MIC combination of CAZ and compounds of the invention at 4 μg/mL (K. pneumoniae 200047): <0.25; MIC combination of CAZ and compounds of the invention at 4 μg/mL (E. cloacae UFR51): <0.25; MIC combination of CAZ and compounds of the invention at 4 μg/mL (E. coli UFR39): <0.25; MIC compounds of the invention alone (E. coli 190317 [5]): 1 µg/mL; MIC compounds of the invention alone (K. oxytoca UFR21 [6]): 2 µg/mL |
| O=C1N2CC(n3nccn3)=CC(C2)N1OS(=O)(=O)O (centres unmarked) [Example 3, sodium [7-oxo-3-(triazol-2-yl)-1,6-diazabicyclo[3.2.1]oct-3-en-6-yl]sulfate] | <0.25 | <0.25 | <0.25 | <0.25 | 0.5 | <0.25 | 4 | <0.25 | <0.25 | <0.25 | <0.25 | >128 | ≤0.25 | ≤0.25 | ≤0.25 | <0.25 | <0.25 | 0.5 | <0.25 | 0.5 | IC50 (OXA-15): 190 nM; MIC (E. coli RGN238 [1]; Escherichia coli, RGN238, read-out: MIC compounds of the invention alone): 2 µg/mL; IC50 (OXA-48): 1.6 nM; IC50 (KPC-2): 12 nM; IC50 (CTX-M-15): 2.1 nM; MIC combination of CAZ and compounds of the invention at 4 μg/mL (K. pneumoniae 200047): <0.25; MIC combination of CAZ and compounds of the invention at 4 μg/mL (E. cloacae UFR51): <0.25; MIC combination of CAZ and compounds of the invention at 4 μg/mL (E. coli UFR39): >128; MIC (E. coli 190317 [5]; Escherichia coli, read-out: MIC compounds of the invention alone): 2 µg/mL; MIC (K. oxytoca UFR21 [6]; Klebsiella oxytoca, read-out: MIC compounds of the invention alone): 8 µg/mL |
